Assay results from patent US7994209B2, “3-phenoxymethylpyrrolidine compounds” (Theravance, Inc., priority 2009, dated 2011).
Marks after values point to notes of the source that are not given here.

Tests used:
hSERT [1] = molecular target: T1, hSERT (Homo sapiens, UniProt P31645); assay: fluorescence-based serotonin reuptake inhibition assay (Tsuruda et al. 2010; data indicated by an asterisk); format: cell-based; parameters: expressed in transfected cells; host or cells: HEK-293; settings: fluorescence-based assay (values with asterisk); for IC50: read-out: SERT pIC50 (converted)
T1 sequence (P31645 whole entry): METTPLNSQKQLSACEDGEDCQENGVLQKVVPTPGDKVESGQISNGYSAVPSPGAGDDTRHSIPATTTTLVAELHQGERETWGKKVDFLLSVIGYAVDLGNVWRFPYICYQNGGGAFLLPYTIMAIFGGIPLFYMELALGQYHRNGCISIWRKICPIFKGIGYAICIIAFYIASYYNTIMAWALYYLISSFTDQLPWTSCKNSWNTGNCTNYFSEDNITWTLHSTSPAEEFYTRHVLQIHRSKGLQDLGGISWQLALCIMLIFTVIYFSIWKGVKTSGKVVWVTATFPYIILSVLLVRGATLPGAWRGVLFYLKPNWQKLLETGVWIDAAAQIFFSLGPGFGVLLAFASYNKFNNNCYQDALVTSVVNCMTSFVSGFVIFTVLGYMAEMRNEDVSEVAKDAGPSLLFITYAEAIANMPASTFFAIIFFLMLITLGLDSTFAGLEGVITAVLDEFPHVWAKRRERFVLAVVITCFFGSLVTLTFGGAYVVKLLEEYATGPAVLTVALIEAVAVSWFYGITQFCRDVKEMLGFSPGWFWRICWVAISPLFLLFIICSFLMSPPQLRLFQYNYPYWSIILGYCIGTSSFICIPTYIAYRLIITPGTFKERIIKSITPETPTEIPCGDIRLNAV

hNET [2] = molecular target: T2, hNET (Homo sapiens, UniProt P23975); assay: fluorescence-based norepinephrine reuptake inhibition assay (Tsuruda et al. 2010; data indicated by an asterisk); format: cell-based; parameters: expressed in transfected cells; host or cells: HEK-293; settings: norepinephrine reuptake inhibition, fluorescence-based assay (values with asterisk); read-out: NET pIC50 (converted)
T2 sequence (P23975 whole entry): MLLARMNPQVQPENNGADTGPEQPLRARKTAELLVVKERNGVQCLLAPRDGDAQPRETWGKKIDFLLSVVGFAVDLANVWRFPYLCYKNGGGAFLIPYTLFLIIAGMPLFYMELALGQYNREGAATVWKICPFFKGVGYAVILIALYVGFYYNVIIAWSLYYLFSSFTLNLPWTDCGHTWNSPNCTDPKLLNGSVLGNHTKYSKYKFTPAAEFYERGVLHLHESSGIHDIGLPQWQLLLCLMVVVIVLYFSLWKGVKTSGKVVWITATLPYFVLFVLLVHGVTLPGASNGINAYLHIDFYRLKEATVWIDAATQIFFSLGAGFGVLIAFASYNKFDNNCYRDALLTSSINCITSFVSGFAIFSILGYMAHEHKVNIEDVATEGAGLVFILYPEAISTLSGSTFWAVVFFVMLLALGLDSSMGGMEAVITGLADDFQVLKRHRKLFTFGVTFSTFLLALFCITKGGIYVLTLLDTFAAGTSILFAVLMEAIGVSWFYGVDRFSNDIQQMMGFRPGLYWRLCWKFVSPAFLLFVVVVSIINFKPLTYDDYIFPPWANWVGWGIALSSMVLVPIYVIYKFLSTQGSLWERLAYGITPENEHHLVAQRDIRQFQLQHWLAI

hNET [3] = molecular target: T2, hNET; assay: hNET membrane radioligand binding assay (3H-nisoxetine), Assay 1
Protocol: Membrane radioligand binding assays were used to measure inhibition of labeled ligand (^3H-citalopram or ^3H-nisoxetine or ^3H-WIN35428) binding to membranes prepared from cells expressing the respective human recombinant transporter (hSERT or hNET or hDAT) in order to determine the pKi values of test compounds at the transporters.
Recombinant human embryonic kidney (HEK-293) derived cell lines stably transfected with hSERT or hNET, respectively, were grown in DMEM medium supplemented with 10% dialyzed FBS (for hSERT) or FBS (for hNET), 100 μg/mL penicillin, 100 μg/mL streptomycin, 2 mM L-glutamine and 250 μg/mL of the aminoglycoside antibiotic G418, in a 5% CO2 humidified incubator at 37° C. When cultures reached 80% confluence, the cells were washed thoroughly in PBS (without Ca^2+ and Mg^2+) and lifted with 5 mM EDTA in PBS. Cells were pelleted by centrifugation, resuspended in lysis buffer (10 mM Tris-HCl, pH7.5 containing 1 mM EDTA), homogenized, pelleted by centrifugation, then resuspended in 50 mM Tris-HCl, pH 7.5 and 10% sucrose at 4° C. Protein concentration of the membrane suspension was determined using a Bio-Rad Bradford Protein Assay kit. Membranes were snap frozen and stored at −80° C.
Binding assays were performed in a 96-well assay plate in a total volume of 200 μl assay buffer (50 mM Tris-HCl, 120 mM NaCl, 5 mM KCl, pH 7.4) with 0.5, 1, and 3 μg membrane protein, for SERT, NET and DAT, respectively.
Stock solutions (10 mM in DMSO) of test compound were prepared and serial dilutions made using Dilution Buffer (50 mM Tris-HCl, 120 mM NaCl, 5 mM KCl, pH 7.4, 0.1% BSA, 400 μM ascorbic acid).
Following a 60 minute incubation at 22° C. (or a period sufficient to reach equilibrium), the membranes were harvested by rapid filtration over a 96-well UniFilter GF/B plate, pretreated with 0.3% polyethyleneimine, and washed 6 times with 300 μl wash buffer (50 mM Tris-HCl, 0.9% NaCl, pH 7.5 at 4° C.). Plates were dried overnight at room temperature, approximately 45 μl of MicroScint™-20 (Perkin Elmer) added and bound radioactivity quantitated via liquid scintillation spectroscopy. Inhibition curves and saturation isotherms were analyzed using GraphPad Prism Software package (GraphPad Software, Inc., San Diego, Calif.). IC50 values were generated from concentration response curves using the Sigmoidal Dose Response (variable slope) algorithm in Prism GraphPad.

hSERT [4] = molecular target: T1, hSERT; assay: hSERT neurotransmitter uptake assay (3H-5-HT), Assay 2; format: cell-based; parameters: expressed in transfected cells; host or cells: HEK-293; settings: serotonin reuptake inhibition, 3H-5-HT uptake, HEK-293 hSERT cells (values without asterisk); read-out: SERT pIC50 (converted)
hSERT [5] = molecular target: T1, hSERT; assay: hSERT membrane radioligand binding assay (3H-citalopram), Assay 1; settings: SERT pKi, hSERT HEK-293 membranes, 1.0 nM 3H-citalopram; values given as lower bounds
hNET [6] = molecular target: T2, hNET; assay: hNET neurotransmitter uptake assay (3H-NE), Assay 2; format: cell-based; parameters: expressed in transfected cells; host or cells: HEK-293; settings: norepinephrine reuptake inhibition, 3H-NE uptake, HEK-293 hNET cells (values without asterisk); read-out: NET pIC50 (converted)

| IC50 (hSERT [1]) [µM] | IC50 (hNET [2]) [µM] | SERT pIC50 (hSERT [1]) | Ki (hNET [3]) [µM] | IC50 (hSERT [4]) [µM] | Ki (hSERT [5]) [µM] | IC50 (hNET [6]) [µM] | SMILES |
| --- | --- | --- | --- | --- | --- | --- | --- |
| ≤ 0.01 | ≤ 0.01 | – | – | – | – | – | Cc1ccc(OC(C2CCCC2)C2CCNC2)c(Cl)c1 (mixture of isomers) [Example 17, 3-[(2-Chloro-4-methylphenoxy)cyclopentylmethyl]pyrrolidine] |
| ≤ 0.01 | ≤ 0.1 | – | – | – | – | – | FC(F)(F)c1c(Cl)cccc1OC(C1CCCC1)C1CCNC1 (single isomer, unassigned) [Example 18-2, 3-[(3-Chloro-2-trifluoromethylphenoxy)cyclopentylmethyl]pyrrolidine] |
| ≤ 0.1 | ≤ 0.01 | – | – | – | – | – | FC(F)(F)c1c(Cl)cccc1OC(C1CCCC1)C1CCNC1 (single isomer, unassigned) [Example 18-3, 3-[(3-Chloro-2-trifluoromethylphenoxy)cyclopentylmethyl]pyrrolidine] |
| ≤ 0.01 | ≤ 0.1 | – | – | – | – | – | Clc1ccc(OC(C2CCCC2)C2CCNC2)c(Cl)c1 (single isomer, unassigned) [Example 18-4, 3-[Cyclopentyl-(2,4-dichlorophenoxy)methyl]pyrrolidine] |
| – | ≤ 0.01 | ≧8.0* | – | – | – | – | Clc1ccc(OC(C2CCCC2)C2CCNC2)c(Cl)c1 (single isomer, unassigned) [Example 18-5, 3-[Cyclopentyl-(2,4-dichlorophenoxy)methyl]pyrrolidine] |
| ≤ 0.01 | ≤ 0.1 | – | – | – | – | – | CC[C@@H](Oc1ccc(Cl)cc1)[C@H]1CCNC1 [Example 2-4, (S)-3-[(R)-1-(4-Chlorophenoxy)propyl]pyrrolidine] |
| ≤ 0.01 | ≤ 0.1 | – | – | – | – | – | CC[C@@H](Oc1ccc(Cl)c(F)c1)[C@H]1CCNC1 [Example 2-6, (S)-3-[(R)-1-(4-Chloro-3-fluorophenoxy)propyl]pyrrolidine] |
| – | – | – | ≤ 0.01 | ≤ 0.316 | ≤ 0.1 | ≤ 0.01 | Clc1cccc(Cl)c1O[C@@H](C1CC1)[C@H]1CCNC1 [Example 16-44, (S)-3-[(S)cyclopropyl-(2,6-dichlorophenoxy)-methyl]pyrrolidine] |
| – | – | – | ≤ 0.01 | ≤ 0.01 | ≤ 0.01 | ≤ 0.01 | Cc1ccc(O[C@H](C2CC2)[C@H]2CCNC2)c(F)c1F [Example 16-51, (S)-3-[(R)cyclopropyl-(2,3-difluoro-4-methylphenoxy)methyl]pyrrolidine] |
| – | – | – | ≤ 0.01 | ≤ 0.01 | ≤ 0.01 | ≤ 0.01 | COc1c(O[C@@H](C2CC2)[C@H]2CCNC2)ccc(Cl)c1Cl [Example 16-55, (S)-3-[(S)cyclopropyl-(3,4-dichloro-2-methoxyphenoxy)methyl]pyrrolidine] |
| – | – | – | ≤ 0.01 | ≤ 0.1 | ≤ 0.01 | ≤ 0.01 | Clc1ccc(Cl)c(O[C@@H](C2CC2)[C@H]2CCNC2)c1Cl [Example 16-58, (S)-3-[(S)cyclopropyl-(2,3,6-trichlorophenoxy)methyl]pyrrolidine] |
| – | – | – | ≤ 0.01 | ≤ 0.1 | ≤ 0.01 | ≤ 0.01 | Fc1ccc(F)c(O[C@@H](C2CC2)[C@H]2CCNC2)c1Cl [Example 16-61, (S)-3-[(S)-(2-Chloro-3,6-difluorophenoxy)cyclopropylmethyl]pyrrolidine] |
| – | – | – | ≤ 0.01 | ≤ 0.01 | ≤ 0.01 | ≤ 0.01 | COc1ccc(F)c(O[C@H](C2CC2)[C@H]2CCNC2)c1Cl [Example 16-65, (S)-3-[(R)-(2-Chloro-6-fluoro-3-methoxyphenoxy)cyclopropylmethyl]pyrrolidine] |
| ≤ 0.1 | – | – | ≤ 3.16 | – | ≤ 0.01 | – | Cc1cc(O[C@H](C2CC2)[C@H]2CCNC2)c(Cl)cc1Cl [Example 16-73, (S)-3-[(R)cyclopropyl-(2,4-dichloro-5-methylphenoxy)methyl]pyrrolidine] |
| – | – | – | ≤ 0.01 | ≤ 0.01 | ≤ 0.01 | ≤ 0.01 | Fc1cc(Cl)cc(Cl)c1O[C@H](C1CC1)[C@H]1CCNC1 [Example 16-76, (S)-3-[(R)cyclopropyl-(2,4-dichloro-6-fluorophenoxy)methyl]pyrrolidine] |
| – | – | – | ≤ 0.01 | ≤ 0.01 | ≤ 0.01 | ≤ 0.1 | Cc1cc(Cl)cc(Cl)c1O[C@@H](C1CC1)[C@H]1CCNC1 [Example 16-77, (S)-3-[(S)cyclopropyl-(2,4-dichloro-6-methylphenoxy)methyl]pyrrolidine] |
| – | – | – | ≤ 0.01 | ≤ 0.01 | ≤ 0.01 | ≤ 0.01 | Fc1cc(Cl)cc(F)c1O[C@@H](C1CC1)[C@H]1CCNC1 [Example 16-79, (S)-3-[(S)-(4-Chloro-2,6-difluorophenoxy)cyclopropylmethyl]pyrrolidine] |

| IC50 (hSERT [1]) [µM] | IC50 (hNET [2]) [µM] | SERT pIC50 (hSERT [1]) | Ki (hNET [3]) [µM] | IC50 (hSERT [4]) [µM] | Ki (hSERT [5]) [µM] | IC50 (hNET [6]) [µM] | SMILES |
| --- | --- | --- | --- | --- | --- | --- | --- |
| – | – | – | ≤ 0.01 | ≤ 0.1 | ≤ 0.01 | ≤ 0.01 | CCc1cc(F)cc(F)c1O[C@@H](C1CC1)[C@H]1CCNC1 [Example 16-81, (S)-3-[(S)cyclopropyl-(2-ethyl-4,6-difluorophenoxy)-methyl]pyrrolidine] |
| – | – | – | ≤ 0.01 | ≤ 0.1 | ≤ 0.01 | ≤ 0.01 | CSc1cccc(O[C@@H](C2CC2)[C@H]2CCNC2)c1 [Example 16-86, (S)-3-[(S)cyclopropyl-(3-methylsulfanylphenoxy)methyl]pyrrolidine] |
| – | – | – | ≤ 0.01 | ≤ 0.1 | ≤ 0.01 | ≤ 0.1 | Fc1ccc(O[C@@H](C2CC2)[C@H]2CCNC2)cc1Cl [Example 16-89, (S)-3-[(S)-(3-Chloro-4-fluorophenoxy)cyclopropylmethyl]pyrrolidine] |
| – | – | – | ≤ 0.01 | ≤ 0.01 | ≤ 0.01 | ≤ 0.01 | Fc1cc(O[C@H](C2CC2)[C@H]2CCNC2)ccc1Cl [Example 16-91, (S)-3-[(R)-(4-Chloro-3-fluorophenoxy)cyclopropylmethyl]pyrrolidine] |
| – | – | – | ≤ 0.01 | ≤ 0.01 | ≤ 0.01 | ≤ 0.01 | Fc1cc(O[C@@H](C2CC2)[C@H]2CCNC2)ccc1Cl [Example 16-93, (S)-3-[(S)-(4-Chloro-3-fluorophenoxy)cyclopropylmethyl]pyrrolidine] |
| – | – | – | ≤ 0.01 | ≤ 0.01 | ≤ 0.01 | ≤ 0.01 | Clc1cc(Cl)cc(O[C@@H](C2CC2)[C@H]2CCNC2)c1 [Example 16-96, (S)-3-[(S)cyclopropyl-(3,5-dichlorophenoxy)methyl]pyrrolidine] |
| – | – | – | ≤ 0.01 | ≤ 0.01 | ≤ 0.01 | ≤ 0.01 | Clc1cc(Cl)cc(O[C@H](C2CC2)[C@H]2CCNC2)c1 [Example 16-97, (S)-3-[(R)cyclopropyl-(3,5-dichlorophenoxy)methyl]pyrrolidine] |
| – | – | – | ≤ 0.01 | ≤ 0.1 | ≤ 0.01 | ≤ 0.01 | Fc1cc(Cl)cc(O[C@@H](C2CC2)[C@H]2CCNC2)c1 [Example 16-98, (S)-3-[(S)-(3-Chloro-5-fluorophenoxy)cyclopropylmethyl]pyrrolidine] |
| – | – | – | ≤ 0.01 | ≤ 0.1 | ≤ 0.01 | ≤ 0.01 | Fc1cc(Cl)cc(O[C@H](C2CC2)[C@H]2CCNC2)c1 [Example 16-99, (S)-3-[(R)-(3-Chloro-5-fluorophenoxy)cyclopropylmethyl]pyrrolidine] |
| – | – | – | ≤ 0.01 | ≤ 0.01 | ≤ 0.01 | ≤ 0.01 | Clc1ccc(O[C@@H](C2CC2)[C@H]2CCNC2)cc1 [Example 16-103, (S)-3-[(S)-(4-Chlorophenoxy)cyclopropylmethyl]pyrrolidine] |
| – | – | – | ≤ 0.01 | ≤ 0.1 | ≤ 0.01 | ≤ 0.01 | Clc1cccc(Cl)c1O[C@@H](C1CCCCC1)[C@H]1CCNC1 [Example 19, (S)-3-[(S)-Cyclohexyl-(2,6-dichlorophenoxy)methyl]pyrrolidine] |
| – | – | – | ≤ 0.01 | ≤ 0.01 | ≤ 0.01 | ≤ 0.01 | Fc1cccc(O[C@H](C2CCCCC2)[C@H]2CCNC2)c1Cl [Example 20-5, (S)-3-[(R)-(2-Chloro-3-fluorophenoxy)cyclohexylmethyl]pyrrolidine] |
| – | – | – | ≤ 0.01 | ≤ 0.01 | ≤ 0.01 | ≤ 0.01 | C=CC[C@H](Oc1cccc(Cl)c1C)[C@H]1CCNC1 [Example 24, (S)-3-[(S)-1-(3-Chloro-2-methylphenoxy)but-3-enyl]-pyrrolidine] |
| – | – | – | ≤ 0.01 | ≤ 0.01 | ≤ 0.01 | ≤ 0.01 | C=CC[C@H](Oc1ccc(Cl)cc1)[C@H]1CCNC1 [Example 25-1, (S)-3-[(S)-1-(4-Chlorophenoxy)but-3-enyl]pyrrolidine] |
| – | – | – | ≤ 0.01 | ≤ 0.1 | ≤ 0.01 | ≤ 0.01 | C#CC(Oc1c(Cl)ccc(Cl)c1Cl)[C@H]1CCNC1 (stereo partly drawn) [Example 26, (S)-3-[1(2,3,6-Trichlorophenoxy)prop-2-ynyl]pyrrolidine] |
| – | – | – | ≤ 0.01 | ≤ 0.1 | ≤ 0.01 | ≤ 0.01 | C#CC(Oc1cccc(Cl)c1Cl)[C@H]1CCNC1 (stereo partly drawn) [Example 27-1, (S)-3-[1-(2,3-Dichlorophenoxy)prop-2-ynyl]pyrrolidine] |
